Laboratory results reported in patent US8097625B2, “Combination of sedative and a neurotransmitter modulator, and methods for improving sleep quality and treating depression” (priority 2003, dated 2012).

Experiments:
[1] = DREAMDD clinical study: subject disposition; assay type: in vivo, human; details: of 270 randomized; 3 mg nightly + fluoxetine
From the text: Subjects who discontinued early for any reason were replaced.
Subject Disposition and Drug Exposure: Subject disposition was summarized and presented for the number and percentage of subjects, who were screened, randomized, received treatment, completed the study, and discontinued early (including reasons for discontinuations). For each subject, the number of doses taken was computed from the study drug dispensation and accountability CRF records obtained at each visit, assuming that subjects took their study drug medication evenly throughout the between-visits periods. The extent of exposure to the double-blind medication as well as the number of doses taken during the double-blind treatment period was summarized with descriptive statistics and presented by treatment group.

[2] = DREAMDD clinical study: tolerability and adverse events; assay type: in vivo, human; details: 8 weeks
Protocol: Safety was assessed by physical examinations, a standard 12-lead ECG, vital signs, clinical laboratory assessments and AE reporting.
Adverse Events (AEs): Subjects were queried in a non-leading manner, without specific prompting (e.g., “How are you feeling?”) to assess whether they are suffering from any adverse events.
Adverse Events: All adverse experiences were coded using the COSTART dictionary (Coding Symbols for a thesaurus of Adverse Event Terms; version 5.0, 1995). Treatment emergent adverse experiences was defined as 1) AEs that occurred or worsened (increased in severity and/or frequency) on or after the first dose of study medication, 2) AEs with a missing start data and a stop date on or after the first dose of study medication, or 3) AEs with both a missing start and stop date. Treatment emergent AEs was summarized by treatment and by COSTART body system and preferred term. AEs that occurred within 14 days after treatment discontinuation was considered treatment-emergent AEs.

## CN1CCN(C(=O)OC2c3nccnc3C(=O)N2c2ccc(Cl)cn2)CC1 (single isomer, unassigned; (+)) [Eszopiclone, (+) 6-(5-chloro-2-pyridinyl)-6,7-dihydro-7-oxo-5H-pyrrolo[3,4b]pyrazin-5-yl 4-methylpiperazine-1-carboxylate]
[1]
  Subject Disposition: Discontinued, AE: 17 (6.3) n (%)
  Subject Disposition: Discontinued, Treatment for Insomnia Failure: 2 (0.7) n (%)
[2]; 3 mg QHS + fluoxetine QAM
  unpleasant taste compared to placebo: more common
[2]; 3 mg nightly + fluoxetine
  drop-outs due to AEs versus placebo: comparable
[2]; 3 mg nightly + fluoxetine, MDD and insomnia
  tolerability of co-administration with fluoxetine: well-tolerated
